Test results from patent publication US10208012B2, “Compounds for treating inflammatory and hyperproliferative diseases” (Board of Regents, The University of Texas System, priority 2013, dated 2019).
Where two headings read alike, the source gives them in different places.

Key:
[1] = test system: normal human peripheral blood mononuclear cells (PBMC); assay: Cytotoxicity in normal PBMC by thymidine incorporation; type: cell-based; conditions: minimal toxicity stated for drug concentration below 600 nM
Text: FIG. 4. Effect of Turmerax compounds in normal peripheral blood mononuclear cells (PBMC). Turmeric analogues (1, 3, 5, and 9) were evaluate for cytoxicity in normal human peripheral blood mononuclear cells (PBMC) by thymidine incorporation assays.
Malignant lymphoma continues to represent a major health issue in the US and worldwide. Non-Hodgkin lymphomas (NHL) are a common, heterogeneous group of primarily (˜85%) B lymphoid cell neoplasms (NHL-B) arising in the B cell lineage of the human immune (lymphoid) system. NHL-Bs are the fifth most common cancer in the USA (˜65,000 new cases/25,000 deaths expected in 2010). Therefore, there is a great need for novel treatment strategies for this deadly cancer, particularly for relapsed/refractory lymphomas. Relapsed/refractory (r/rDLBCL) DLBCL is one of the most difficult scientific challenges and severe unmet therapeutic needs in clinical oncology today. This is due largely to very drug resistant tumor cells with very poor responses (<20% PR/CR) to current “salvage” therapies. Key pathways (NF-kB, AKT, STAT3), controlling cell growth/survival and chemoresistance in DLBCL have been discovered. Since natural compounds such as turmeric can target multiple pathways with low cellular toxicity, novel compounds with higher potency for cancer cells were sought. Initially, 6 novel turmeric analogues were designed and synthesized using cyclic thioketone and different substituted aromatic aldehydes. […] These compounds were named turmerax (TMX) (1-10), and tested them in the two resistant mantle cell lymphoma cell lines (Mino and Z-138). […] Turmerax compounds 1, 3, 5 and 9 were further analyzed at concentrations below 1 μM for cell growth inhibition in vitro. […] Next, the toxicity of these Turmerax compounds (1, 3, 5 and 9) was evaluated in normal human peripheral blood mononuclear cells (PBMC). […]

[2] = test system: mantle cell lymphoma cell lines (Mino and Z-138); assay: Thymidine incorporation proliferation assay in mantle cell lymphoma cell lines; type: cell-based
Protocol: FIG. 1. Effect of Tumeric Derivatives in MCL cells. Six TMX analogs were screened in two mantle cell lymphoma cell lines (Mino and Z-138). These assays were performed by treating cells with increasing doses of TMX (0-25 μM) and analyzed by thymidine incorporation (proliferation assay).
FIG. 2. Effect of Turmerax Compounds in MCLs. 10 additional TMX analogs derived from compound #6 (from FIG. 1) were screened in two mantle cell lymphoma cell lines (Mino and Z-138). These assays were performed by treating cells with increasing doses of TMX (0-25 μM) and analyzed by thymidine incorporation (proliferation assay).
FIG. 3. Effect of Turmerax Compounds in MCLs. Four compounds from FIG. 2 were selected to analyze at concentrations below 1 μM for cell growth inhibition in vitro.
Malignant lymphoma continues to represent a major health issue in the US and worldwide. Non-Hodgkin lymphomas (NHL) are a common, heterogeneous group of primarily (˜85%) B lymphoid cell neoplasms (NHL-B) arising in the B cell lineage of the human immune (lymphoid) system. NHL-Bs are the fifth most common cancer in the USA (˜65,000 new cases/25,000 deaths expected in 2010). Therefore, there is a great need for novel treatment strategies for this deadly cancer, particularly for relapsed/refractory lymphomas. Relapsed/refractory (r/rDLBCL) DLBCL is one of the most difficult scientific challenges and severe unmet therapeutic needs in clinical oncology today. This is due largely to very drug resistant tumor cells with very poor responses (<20% PR/CR) to current “salvage” therapies. Key pathways (NF-kB, AKT, STAT3), controlling cell growth/survival and chemoresistance in DLBCL have been discovered. Since natural compounds such as turmeric can target multiple pathways with low cellular toxicity, novel compounds with higher potency for cancer cells were sought. Initially, 6 novel turmeric analogues were designed and synthesized using cyclic thioketone and different substituted aromatic aldehydes. […] These compounds were named turmerax (TMX) (1-10), and tested them in the two resistant mantle cell lymphoma cell lines (Mino and Z-138). […] Turmerax compounds 1, 3, 5 and 9 were further analyzed at concentrations below 1 μM for cell growth inhibition in vitro. […] Next, the toxicity of these Turmerax compounds (1, 3, 5 and 9) was evaluated in normal human peripheral blood mononuclear cells (PBMC). […] The effectiveness of Turmerax compounds 1 and 5 in four MCL cell lines were examined, four LBCL cell lines (both ABC and GCB-type) and one follicular lymphoma cell line (CJ) in comparison to the wild type (natural) curcumin compound, to which these compounds bear some structural relatedness. The IC50 for Turmerax cmpds.

[3] = test system: McA DLBCL cells; assay: Sensitivity of doxorubicin-sensitive DLBCL cells; type: cell-based
Protocol: (§1) FIG. 7. TMX-1 Targets NF-kB and Key Signaling Pathways in DLBCL to Overcome Chemoresistance. Top left, DLBCL cells (MS) were transfect with the 6×-NF-kB-luciferase expression vector for 24 hrs. Transfected cells were treated with PBS (control) or Lipo-TMX-1 (100 nM) for 4 hrs. Cell lysates were used to analyzed for luciferase activity that was normalized with b-gal activity. Top right, TMX-1 inhibited NIK and pAKT in NHL-B cells. MS cells were treated with increasing doses of Lipo-TMX-1 (0-500 nM) for 24 hrs. NIK and pAKT protein expressions were determined by Western blotting. Bottom, Doxorubicin resistant cells are sensitive to TMX-1. MS cells are resistant to Dox, but are sensitive to TMX-1. McA DLBCL cells are sensitive to both doxorubicin and TMX-1.

[4] = test system: MS cells; assay: Sensitivity of doxorubicin-resistant DLBCL cells; type: cell-based
Protocol: as §1

[5] = test system: human DLBCL cell lines (Dox-sensitive and Dox-resistant); assay: 72-hr proliferation assays in doxorubicin-sensitive and -resistant DLBCL cell lines; type: cell-based
Protocol: FIGS. 13A-B. TMX-1 inhibits DLBCL cell proliferation. (FIG. 13A) 24 representative DLBCL cell lines were treated with TMX-1 in dose-dependent manner and analyzed by thymidine incorporation assays for cell growth inhibition. (FIG. 13B) Effect of TMX-1 in doxorubicin highly sensitive and highly resistant DLBCL cell lines (Pham et al., 2011).
DLBCL are currently initially treated fairly successfully with R-CHOP frontline chemotherapy (˜70-80% initial remission rate), but relapsed/refractory DLBCL occurs frequently (˜40% within 2-3 yrs), with very poor salvage therapy options (˜20% PR/CR). A unique repertoire of human DLBCL cell lines were developed (Ford et al., 1990; Pham et al., 2010) that can be classified into two subgroups, doxorubicin (a key component in CHOP)-sensitive and doxorubicin-resistant. These cell lines were screened against TMX-1 in a dose-dependent manner using 72-hr proliferation assays (FIG. 13A).

[6] = test system: pH2AX; assay: DNA damage marker in LY-10 cells; type: cell-based
Protocol: (§2) FIGS. 12A-C. TMX-1 induces apoptosis in lymphoma cells. (FIG. 12A) A representative lymphoma cell line (LY10) was treated with TMX-1 in a dose-dependent manner for 24 hrs. Apoptosis was determined by Annexin V assays. (FIG. 12B) TMX-1 activates phospho-H2AX (DNA damage marker) and induces bcl-2 cleaving in lymphoma cells. (FIG. 12C) A representative DLBCL cell line (MS) was transfected with a NF-kB-luciferase reporter for 24 hrs. Cells were treated with TMX-1 as indicated.
(§3) To determine whether TMX-1 can induce apoptosis in lymphoma cells, we treated a diffuse large cell lymphoma (DLBCL) cell line (LY-10) with TMX-1 in a dose-dependent manner for 24 hrs. Control and treated cells were analyzed for apoptosis using Annexin V assays. […] Next, we test whether TMX-1 can induces DNA damage in LY-10 cells. […] The inventors also examined whether TMX-1 can inhibit NF-kB activity in lymphoma cells. For these studies, a DLBCL cell line (MS) was transfected with a NF-kB luciferase reporter for 24 hrs, at which time cells were treated with TMX-1 in a dose- and time-dependent manner. […] There are many NF-kB inhibitors commercially available that have been tested in many cancer systems, but none has ever reached the clinic to cancer treatment. The reason for this is typically because these agents usually target upstream of NF-kB signaling pathways, leading to many unwanted side effects.

[7] = test system: LY10 cells; assay: Annexin V apoptosis assay; type: cell-based; conditions: 500 nM drug concentration, 24 hrs
Protocol: as §2, §3

[8] = test system: melanoma, gastric, pancreatic, and glioma cancer cell lines; assay: MTT cell growth inhibition in NF-kB-associated solid tumor cancer cell lines; type: cell-based
Text: FIG. 11. Effect of TMX-1 in NF-kB-Associated Cancers. Representative cancer cell lines for melanoma, gastric, pancreatic, and glioma were used to analyzed for cell growth inhibition activity of TMX-1 using MTT assays.
(§4) These formulations may be used in further clinical trials.

[9] = test system: NIK; assay: Western blotting of NIK in MS cells; type: cell-based; conditions: Lipo-TMX-1 0-500 nM, 24 hrs
Protocol: as §1

[10] = Bio-availability in vivo
Text: as §4

[11] = Water solubility, suspended in water for 24 hrs; type: physicochemical
Text: FIG. 8. Water Solubility of Lipo-Turmerax-1 Compound. Liposomal TMX-1 and TMX-1 compounds were suspended in water for 24 hrs.
as §4

[12] = test system: pAKT; assay: Western blotting of pAKT in MS cells; type: cell-based; conditions: Lipo-TMX-1 0-500 nM, 24 hrs
Protocol: as §1

[13] = test system: DLBCL cell line (TJ); assay: Combination cell proliferation assays in DLBCL cell line (TJ); type: cell-based; conditions: TJ cells
Protocol: FIGS. 14A-B. A representative DLBCL cell line (TJ) was treated with TMX-1 in a dose-dependent manner alone or in combination with Ibrutinib (IB) and carfilzomib (CFZ) and cell proliferation assays were analyzed.
Recent molecularly targeted therapy, as opposed to classic chemotherapy, has improved the treatment of lymphoid malignancies. At the forefront of clinical development are ibrutinib, an inhibitor of Bruton's tyrosine kinase (btk) and carfilzomib (CFZ), a second-generation proteasome inhibitor.

[14] = test system: bcl-2; assay: bcl-2 cleaving in LY-10 cells; type: cell-based
Protocol: as §2, §3

[15] = Mino and Z-138, doses 0-25 μM, thymidine incorporation, read-out: IC50, cell growth inhibition
[16] = further analyzed at concentrations below 1 μM, read-out: IC50, cell growth inhibition

O=C1/C(=C/c2ccc([N+](=O)[O-])c(O)c2)CSC/C1=C\c1ccc([N+](=O)[O-])c(O)c1 [Turmerax 3, 3,5-bis[(3-hydroxy-4-nitrophenyl)methylene]-tetrahydrothiopyran-4-one]
toxicity to PBMC [1]: only minimal cell toxicity
IC50 ([2]; read-out: IC50, cell growth inhibition, Mino and Z-138, doses 0-25 μM, thymidine incorporation): < 1000 nM
IC50 ([2]; read-out: IC50, cell growth inhibition, further analyzed at concentrations below 1 μM): 200 to 800 nM

COc1cccc2c1C(=O)c1c(O)c3c(c(O)c1C2=O)C[C@@](O)(C(=O)CO)C[C@@H]3O[C@H]1C[C@H](N)[C@H](O)[C@H](C)O1 [doxorubicin, reference compound]
sensitivity of McA DLBCL cells [3]: sensitive
sensitivity of MS cells [4]: resistant

O=C1/C(=C/c2ccc(Cl)c([N+](=O)[O-])c2)CSC/C1=C\c1ccc(Cl)c([N+](=O)[O-])c1 [Turmerax 5, 3,5-bis[(3-nitro-4-chlorophenyl)methylene]-tetrahydrothiopyran-4-one]
IC50 [2, 15]: < 1000 nM
IC50 [2, 16]: 100 to 200 nM

O=C1/C(=C/c2c(F)ccc(Cl)c2F)CSC/C1=C\c1c(F)ccc(Cl)c1F [Turmerax 8, 3,5-bis[(2,6-difluoro-3-chlorophenyl)methylene]-tetrahydrothiopyran-4-one]
IC50 [2, 15]: > 25000 nM

N#Cc1cccc(/C=C2\CSC/C(=C\c3cccc(C#N)c3)C2=O)c1 [Turmerax 1, 3,5-bis[(3-cyanophenyl)methylene]-tetrahydrothiopyran-4-one]
activity in Dox-sensitive vs. Dox-resistant DLBCL cell lines [5]: equivalent
pH2AX (DNA damage marker) [6]: significantly increased
apoptosis induced [7]: up to 80%
sensitivity of McA DLBCL cells [3]: sensitive
inhibition of solid tumor cancer cells [8]: highly effective
NIK protein expression [9]: inhibited
bio-availability [10]: reduced bio-availability
precipitation in water [11]: shows precipitation
toxicity to PBMC [1]: only minimal cell toxicity
pAKT protein expression [12]: inhibited
effectiveness of combination with ibrutinib compared with combination with CFZ [13]: more effective than TMX-1 in combination with CFZ
interaction with ibrutinib in inhibiting lymphoma cell growth [13]: highly synergistic
sensitivity of MS cells [4]: sensitive
bcl-2 anti-apoptotic protein [14]: cleaved
IC50 [2, 15]: < 1000 nM
IC50 [2, 16]: 100 to 200 nM

COc1ccc(/C=C2\CSC/C(=C\c3ccc(OC)c(OC)c3OC)C2=O)c(OC)c1OC [Turmerax 4, 3,5-bis[(2,3,4-trimethoxyphenyl)methylene]-tetrahydrothiopyran-4-one]
IC50 [2, 15]: > 25000 nM

COc1ccc(/C=C2\CSC/C(=C\c3ccc(OC)c(C)c3C)C2=O)c(C)c1C [Turmerax 7, 3,5-bis[(3,4-dimethyl-4-methoxyphenyl)methylene]-tetrahydrothiopyran-4-one]
IC50 [2, 15]: > 25000 nM

CCOC(=O)c1ccc(/C=C2\CSC/C(=C\c3ccc(C(=O)OCC)cc3)C2=O)cc1 [Turmerax 6, 3,5-bis[(4-ethoxycarbonylphenyl)methylene]-tetrahydrothiopyran-4-one]
IC50 [2, 15]: 3000 to 10000 nM

O=C1/C(=C/c2ccc(Cl)c(Cl)c2)CSC/C1=C\c1ccc(Cl)c(Cl)c1 [Turmerax 2, 3,5-bis[(3,4-dichlorophenyl)methylene]-tetrahydrothiopyran-4-one]
IC50 [2, 15]: 3000 to 10000 nM

N#Cc1ccc(/C=C2\CSC/C(=C\c3ccc(C#N)cc3)C2=O)cc1 [Turmerax 9]
toxicity to PBMC [1]: some toxicity
IC50 [2, 15]: < 1000 nM
IC50 [2, 16]: 200 to 800 nM

O=C1/C(=C/c2ccc(Br)cc2)CSC/C1=C\c1ccc(Br)cc1 [Turmerax 10, 3,5-bis[(4-bromophenyl)methylene]-tetrahydrothiopyran-4-one]
IC50 [2, 15]: 3000 to 10000 nM
